The record followed here is publication PMC7851395 (British Journal of Cancer, 2020).

The subject of series [1] is PC-9 cells. As to the kind of experiment: MTT cytotoxicity assay, PC-9 cells. In kind it is cell-based. Conditions: Homo sapiens, PC-9, 48 h, PC-9 cells, 48 h, MTT; read-out: IC50. The protocol:
(§1) The cytotoxicity and viability of human NSCLC cells and normal cells were determined by MTT assay. MTT assay was performed as described previously.[22] MTT assay was used to determine the cell cytotoxicity and viability in human NSCLC cells. Cells (5 × 10^3 cells/well) were plated in 96-well plates and attached overnight. After the proper treatment, the MTT solution was added at 25 µL/well and incubated at 37 °C for 4 h. The formazan crystals were dissolved in 150 µL of DMSO, and the optical density (OD) was measured using a Microplate Reader at 490 nm. The cell viability was calculated by the following formula: viability = (average OD values of treatment wells/average OD values of vehicle control wells) × 100%. And half-maximal inhibitory concentration (IC50) values were determined by GraphPad Pro Prism 7.0.
A general note: Formazan colour is commonly taken as a measure of viable cells.

The next series relates to H460 cells. The experiment in a line: MTT cytotoxicity assay, H460 cells. In kind it is cell-based. The following applies: Homo sapiens, NCI-H460; H460 cells, 48 h, MTT; read-out: IC50. The protocol:
as §1

Series [2] relates to human umbilical vein endothelial cell HUVEC. The experiment in a line: MTT cytotoxicity assay, normal HUVEC cells. In kind it is cell-based. The protocol:
as §1

Series [3] deals with PC-9 cells. The experiment in a line: Wound-healing migration assay. In kind it is cell-based, human. Conditions: 25, 50, 100 nM, 48 h. The protocol: The ability of cell migration was evaluated by wound-healing assay. The cells grew to 80–90% confluence in six-well plates and then scraped the cell monolayer at the centre of the wells with the tip of a sterile 10 μL pipette to form a clean, straight wound area. Then, the wells were washed with PBS to remove detached cells from the plates. After that, cells were cultured in serum-free RPMI medium with vehicle control or acetyl-bufalin (25, 50, 100 nM). The migration of cells to the wound area was photographed at the 0, 24 and 48 h timepoints with a microscope and imaging system (Leica, Wetzlar, Germany).

Series [4] is described as follows: Pharmacokinetic study in rat plasma (LC-MS/MS). In kind it is in vivo, S.D. rats. The protocol: For the pharmacokinetic study, female S.D. rats (body weight 200 ± 10 g) have fasted overnight with free access to water before the experiment. Twelve rats were randomly divided into four groups. The time schedule included eight timepoints, and three S.D. rats were sampled at each time-point. Bufalin and acetyl-bufalin were administered intravenously and intraperitoneally to the rats at the dose of 0.25 mg/kg and 2 mg/kg, respectively. The animals had free access to water during the experiment. Blood samples were collected from the retro-orbital plexus of each rat at 0.083, 0.25, 0.5, 1, 2, 4, 6, 8, 12, 24 h after administration. Plasma was separated from the blood after centrifugation at 6000×g for 10 min and frozen at −20 °C until analysis. In total, 20 µL of standard samples in duplicate, quality control samples in duplicate and rat plasma samples were mixed with 60 µL of ethyl acetate containing IS (200 ng/mL of tolbutamide, 50 ng/mL of propranolol and 500 ng/mL of Dic) in EP tubes. After the mixture was vortexed for 1 min, then centrifuged for 10 min (13,000 rpm, 4 °C), transferred 50 µL supernatant to a 96-well plate with 150 µL purred water, shacked for 10 min and finally injected 5 µL into liquid chromatographic-tandem mass spectrometry (LC-MS/MS) system for analysis.

For the next series, the system named is caspase-3. The experiment in a line: Caspase-3 activity assay. In kind it is cell-based. Conditions: human NSCLC cells (H460, PC-9), 24 h. The protocol:
The caspase-3 assay was performed as described previously.[23] According to the manufacturer’s protocol, the activity of caspase‐3 was evaluated by using a caspase‐3 colorimetric assay kit (Abcam, Cambridge, UK). H460 and PC-9 cells were collected and resuspended in lysis buffer. After incubation on ice for 10 min, the cell lysate was centrifuged at 12,000 rpm for 10 min at 4 °C, and the protein concentration in the supernatants was measured using the Bradford dye method. The supernatants were incubated with a reaction buffer containing 200 µM devd-p-nitroanilide, for caspase‐3 in a caspase assay buffer at 37 °C with 10 mM dithiothreitol for 2 h. The activity of caspase-3 was determined by measuring the absorbance at 405 nm. Each experiment was done in triplicate for three independent experiments.

The next series deals with H460 xenograft. In kind it is in vivo, BALB/c nude mice. Conditions: 2 mg/kg i.p. every other day. The protocol: All animal procedures were done accordingly with the Institutional laboratory animal research guidelines and were approved by Wenzhou Medical University Animal Policy and Welfare Committee. Female athymic BALB/c nude mice (5–6 weeks old) and immune-defective non-obese […] diabetic severe combined immunodeficiency (NOD-SCID) mice (6–8 weeks old) were purchased from the Vital River Experimental Animal Center (Beijing, China). All the mice were housed under 12 h light–dark cycles at 25 °C and free for water and diet. For the xenograft model, the H460 cells (5 × 10^6 cells were mixed with an equal volume of PBS and Matrigel in 100 μL) were implanted on the hind flank of nude mice. Once tumour volumes reached ~50 mm^3, 24 mice were divided into four experimental groups (six mice per group, no differences in mean body weights or tumour volumes between the groups) and intraperitoneal injection with 2 mg/kg SNS-032 (a recognised CDK9 inhibitor), bufalin and acetyl-bufalin every other day. Tumour volume was measured as V = (L × W × W)/2, in which L and W represent the length and width of tumour. Animals were killed by cervical dislocation once the tumour volume reached 1000 mm^3. The tumours, hearts, livers, kidneys and lungs were removed for use in the histology and western blot analysis.

Series [5] has as its system patient-derived human NSCLC xenografts. The experiment in a line: Patient-derived NSCLC xenograft (PDX) model. The class given is in vivo, mice. Conditions: for average tumour volume: 14 days, vehicle 931.90 mm^3. The protocol: For the patient-derived human NSCLC xenografts (PDXs) animal model, four pairs of lung cancer samples were obtained from patients who had undergone surgical treatment of lung cancer in the First Affiliated Hospital of Wenzhou Medical University. Fresh tumour tissue was sterilely incised into ~3-mm^3 pieces and subcutaneously injected into immunodeficient NOD/SCID mice within 30 min. The remaining tumour tissues were stored at −80 °C. When the tumours have successfully engrafted, tumour samples were removed and passaged into the third generation of nude mice for the following studies. All 18 mice were allocated into three groups (n = 6) and received i.p. injection of acetyl-bufalin (1 mg/kg/2 days and 2 mg/kg/2 days) as compared with mice injected with PBS (vehicle group) every other day. Tumour volume was measured as V = (L × W × W)/2, in which L and W represent the length and width of tumour. After 14 days, all the mice were killed by cervical dislocation. The tumours, hearts, livers, kidneys and lungs were removed for use in the histology and western blot analysis.

The structures appear in SMILES notation.

Turning to `CC(=O)OC1CCC2(C)C(CCC3C2CCC2(C)C(c4ccc(=O)oc4)CCC32O)C1` (centres unmarked) [acetyl-bufalin], the IC50 – broadly, the midpoint of a concentration-inhibition curve – with PC-9 cells [1] is 64 nM; with H460 cells, 27.8 nM. In addition, in series [2], the “cytotoxic effect on normal cells” value is reported as “low toxicity”. The PC-9 cell migration result with PC-9 cells [3] is recorded as “markedly blocked”. Also, in series [4] (0.25 mg/kg i.v. and 2 mg/kg i.p.), the elimination in blood result is given as “much slower than bufalin”. In series [4] (acetyl-bufalin and bufalin formed from it, compared with bufalin dosing), the Cmax entry is “smaller”. Further, the “BAX expression and caspase-3 activity” value in the series on caspase-3 is recorded as “dose-dependently increased”. The “gross toxicities on hearts, livers, kidneys or lungs” value in the series on H460 xenograft (H&E staining) is given as “no gross toxicities”. Also, the “tumour growth (weight and volume)” value in the series with H460 xenograft (compared with vehicle) was “significantly inhibited tumour growth”. Moreover, the “comparison of inhibitory effect between treatments” value in the series with H460 xenograft (versus SNS-032 and bufalin) is recorded as “best inhibitory effect”. The average tumour volume in series [5] (1 mg/kg per 2 days i.p.) stood at 544.43 mm^3; in series [5] (2 mg/kg per 2 days i.p.) it was 256.29 mm^3. Besides, the “body weight of the mice” value in series [5] (1 and 2 mg/kg per 2 days i.p.) is given as “stable”. Moreover, the “gross toxicities on heart, liver, kidney and lung” value in series [5] (H&E staining, compared with vehicle) was “no gross toxicities”.
